Source: patent US8722849B2, “Polypeptides” (Novo Nordisk A/S, priority 2011, dated 2014)
≈ marks a conversion by molar mass, not a printed value. Like-named read-outs stand apart in the source and are kept apart here. Starred links: 1 amine or outer side, 2 acyl side, 3 side chain; linkers in the order of their positions; H or OH if unused. Positions of bridges follow the written chain, without caps; N, C: chain ends. Non-standard residues stand in square brackets, D forms with d. Residues, ends and D or L forms follow the SMILES beside them. *: point of attachment. C20 diacid = O=C(O)CCCCCCCCCCCCCCCCCCC(=O)*; γGlu = O=C(O)[C@H](CCC(=O)[*:2])N[*:1]; AEEA = NCCOCCOCC(=O)O

What was measured:
[1] = molecular target: T1, human amylin receptor (amylin 3(a) receptor: human calcitonin receptor + RAMP-3) (Homo sapiens, UniProt O60896+P30988); assay: Assay (II)a functional CRE-luciferase assay, human amylin receptor; format: cell-based
T1 construct: expressed in transfected cells; host or cells: BHK570
T1 sequence (P30988 25-474): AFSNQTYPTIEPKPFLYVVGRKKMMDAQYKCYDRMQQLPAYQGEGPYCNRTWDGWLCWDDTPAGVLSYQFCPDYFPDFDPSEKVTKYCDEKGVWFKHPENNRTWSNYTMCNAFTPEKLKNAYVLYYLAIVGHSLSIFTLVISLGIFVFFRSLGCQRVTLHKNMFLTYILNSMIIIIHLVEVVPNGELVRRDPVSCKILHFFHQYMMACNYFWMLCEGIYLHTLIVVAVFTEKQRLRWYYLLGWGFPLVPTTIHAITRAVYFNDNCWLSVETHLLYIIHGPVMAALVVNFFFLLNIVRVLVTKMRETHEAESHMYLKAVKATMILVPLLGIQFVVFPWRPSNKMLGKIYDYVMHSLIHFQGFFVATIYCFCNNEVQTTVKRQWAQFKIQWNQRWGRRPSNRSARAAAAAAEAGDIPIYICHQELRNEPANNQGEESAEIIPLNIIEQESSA
T1 sequence (O60896 24-148 partner): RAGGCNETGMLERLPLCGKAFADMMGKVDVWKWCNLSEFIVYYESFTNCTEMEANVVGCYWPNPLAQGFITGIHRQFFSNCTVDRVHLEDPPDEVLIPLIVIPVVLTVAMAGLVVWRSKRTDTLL

[2] = molecular target: T2, human calcitonin receptor (Homo sapiens, UniProt P30988); assay: Assay (II)a functional CRE-luciferase assay, human calcitonin receptor; format: cell-based
T2 construct: expressed in transfected cells; host or cells: BHK570
T2 sequence (P30988 25-474): T1 sequence (P30988 25-474)

[3] = molecular target: T3, rat amylin 3(a) receptor (rat calcitonin(a) receptor + rat RAMP3) (Rattus norvegicus, UniProt P32214+Q9JJ73); assay: Assay (II)b functional cAMP FlashPlate assay, rat amylin receptor; format: cell-based; details: Table 11
T3 construct: expressed in transfected cells; host or cells: BHK tk'ts 13
T3 sequence (P32214 25-479 isoform P32214-2 limits assumed): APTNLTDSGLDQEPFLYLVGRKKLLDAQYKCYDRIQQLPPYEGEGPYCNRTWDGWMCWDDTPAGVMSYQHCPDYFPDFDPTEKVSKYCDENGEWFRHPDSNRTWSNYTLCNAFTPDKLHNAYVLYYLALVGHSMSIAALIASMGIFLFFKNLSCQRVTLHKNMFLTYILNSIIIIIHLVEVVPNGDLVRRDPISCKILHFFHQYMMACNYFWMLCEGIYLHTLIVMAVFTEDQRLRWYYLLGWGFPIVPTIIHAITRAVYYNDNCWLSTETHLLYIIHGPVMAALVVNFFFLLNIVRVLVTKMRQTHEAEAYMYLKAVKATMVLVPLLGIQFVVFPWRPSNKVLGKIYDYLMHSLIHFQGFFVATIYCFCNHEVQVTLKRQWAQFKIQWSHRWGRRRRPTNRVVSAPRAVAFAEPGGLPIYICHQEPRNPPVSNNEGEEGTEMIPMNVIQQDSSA
T3 sequence (Q9JJ73 23-147 partner): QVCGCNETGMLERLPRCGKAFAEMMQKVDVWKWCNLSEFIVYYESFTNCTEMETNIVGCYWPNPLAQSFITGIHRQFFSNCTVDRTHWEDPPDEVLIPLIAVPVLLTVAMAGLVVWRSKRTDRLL
Method in brief: (§1)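 BHK tk'ts 13 cells transiently transfected with rat calcitonin(a) receptor, alone or with rat RAMP3 (amylin 3(a)), were stimulated 24 hours later with sample for 30 min in buffer containing IBMX. cAMP measured by competitive radioactive FlashPlate assay, scintillation read after 3 h detection incubation.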

[4] = molecular target: T4, rat calcitonin (a) receptor (Rattus norvegicus, UniProt P32214); assay: Assay (II)b functional cAMP FlashPlate assay, rat calcitonin receptor; format: cell-based; details: Table 11; read-out: CTa receptor rat EC50
T4 construct: expressed in transfected cells; host or cells: BHK tk'ts 13
T4 sequence (P32214 25-479 isoform P32214-2 limits assumed): T3 sequence (P32214 25-479 isoform P32214-2 limits assumed)
Method in brief: as §1

[5] = Assay (IV) determination of solubility; format: physicochemical
Method in brief: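 Polypeptide in water (~500 nmol/ml) mixed 1:1 with 100 mM glycylglycine (pH 3.0–5.0) or bistrispropane (pH 6.0–8.0) buffers. Held 18 hours at room temperature, then centrifuged. Polypeptide remaining in solution quantified by HPLC.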

[6] = Table 2, BHK amylin 3(a)-receptor/CRE-luc cells
[7] = Table 3, BHK amylin 3(a)-receptor/CRE-luc cells
[8] = Table 7, human calcitonin (CTa) receptor
[9] = Table 11, read-out: CTa receptor human EC50
[10] = pH 3, pH 3.0, read-out: Solubility pH 3.0
[11] = pH 4, pH 4.0, 18 hours at room temperature, Table 2, read-out: Solubility pH 4.0
[12] = pH 4, pH 4.0, read-out: Solubility pH 4.0
[13] = pH 5, pH 5.0, read-out: Solubility pH 5.0
[14] = pH 6, pH 6.0, read-out: Solubility pH 6.0
[15] = pH 7.5, pH 7.5, read-out: Solubility pH 7.5
[16] = pH 8, pH 8.0, read-out: Solubility pH 8.0

| EC50 [1, 6] [nM] | EC50 [1, 7] [nM] | EC50 ([1]; Table 4) [nM] | EC50 ([1]; Table 5) [nM] | EC50 ([1]; Table 6, human amylin receptor) [nM] | EC50 ([1]; Table 7, human amylin receptor) [nM] | EC50 ([1]; Table 8) [nM] | EC50 ([1]; Table 11) [nM] | EC50 [2, 8] [nM] | EC50 [2, 9] [nM] | EC50 [3] [nM] | EC50 [4] [nM] | solubility [5, 10] [µM] | solubility [5, 11] [µM] | solubility [5, 12] [µM] | solubility [5, 13] [µM] | solubility [5, 14] [µM] | solubility [5, 15] [µM] | solubility [5, 16] [µM] | SMILES | further results |
| --- | --- | --- | --- | --- | --- | --- | --- | --- | --- | --- | --- | --- | --- | --- | --- | --- | --- | --- | --- | --- |
| 0.0832 | 0.0832 | 0.0832 | 0.0832 | 0.0832 | 0.0832 | 0.0832 | 0.0832 | 0.642 | 0.642 | 0.132 | 1.89 | > 200 | > 200 | > 200 | > 200 | > 200 | > 200 | > 200 | CC[C@H](C)[C@H](NC(=O)[C@@H]1CCCN1C(=O)CNC(=O)[C@H](Cc1ccccc1)NC(=O)[C@H](CC(N)=O)NC(=O)[C@H](CC(N)=O)NC(=O)[C@H](CO)NC(=O)[C@H](CO)NC(=O)[C@H](CCCNC(=N)N)NC(=O)[C@H](Cc1cnc[nH]1)NC(=O)[C@H](CC(C)C)NC(=O)[C@H](Cc1ccccc1)NC(=O)[C@H](CCC(=O)O)NC(=O)[C@H](C)NC(=O)[C@H](CC(C)C)NC(=O)[C@H](CCCNC(=N)N)NC(=O)[C@H](CCC(N)=O)NC(=O)[C@@H](NC(=O)[C@H](C)NC(=O)[C@@H]1CSSC[C@H](NC(=O)[C@H](CCCCN)NC(=O)[C@@H](CCCNC(=N)N)NC(=O)[C@@H](CCCNC(=N)N)NC(=O)COCCOCCNC(=O)COCCOCCNC(=O)CC[C@H](NC(=O)CCCCCCCCCCCCCCCCCCC(=O)O)C(=O)O)C(=O)N[C@@H](CC(N)=O)C(=O)N[C@@H]([C@@H](C)O)C(=O)N[C@@H](C)C(=O)N[C@@H]([C@@H](C)O)C(=O)N1)[C@@H](C)O)C(=O)N[C@@H](CC(C)C)C(=O)N1CCC[C@H]1C(=O)N1CCC[C@H]1C(=O)N[C@H](C(=O)N[C@@H](CC(N)=O)C(=O)N[C@H](C(=O)NCC(=O)N[C@@H](CO)C(=O)N[C@@H](CC(N)=O)C(=O)N[C@H](C(=O)N[C@@H](Cc1ccc(O)cc1)C(N)=O)[C@@H](C)O)C(C)C)[C@@H](C)O [Example 37, N-alpha-[2-(2-{2-[2-(2-{2-[(S)-4-Carboxy-4-(19-carboxyheptadecanoylamino)butyrylamino]ethoxy}ethoxy)acetylamino]ethoxy}ethoxy)acetyl]-D-Arg-D-Arg-[Glu14,His17,Arg18]-pramlintide] ({C20 diacid-γGlu-AEEA-AEEA}-[dR][dR]KCNTATCATQRLAEFLHRSSNNFGPILPPTNVGSNTY-NH2; disulfide 4-9) | solubility at 18 h ([5]; pH 6.5, read-out: Solubility pH 6.5): 124 µM (≈ 630 µg/mL); Solubility pH 7.0 (μM) ([5]; pH 7.0, 18 hours at room temperature, Table 3): 198 μM; solubility at 18 h ([5]; pH 7.0, Table 8, read-out: Solubility pH 7.0): 198 µM (≈ 1010 µg/mL); solubility at 18 h ([5]; pH 7.0, read-out: Solubility pH 7.0): 198 µM (≈ 1010 µg/mL) |
| 0.149 | 0.149 | 0.149 | 0.149 | 0.149 | 0.149 | 0.149 | 0.149 | 1.11 | 1.11 | 0.233 | 4.48 | > 200 | > 200 | > 200 | > 200 | > 200 | > 200 | > 200 | CC[C@H](C)[C@H](NC(=O)[C@@H]1CCCN1C(=O)CNC(=O)[C@H](Cc1ccccc1)NC(=O)[C@H](CC(N)=O)NC(=O)[C@H](C)NC(=O)[C@H](CO)NC(=O)[C@H](CO)NC(=O)[C@H](CCCNC(=N)N)NC(=O)[C@H](Cc1cnc[nH]1)NC(=O)[C@H](CC(C)C)NC(=O)[C@H](Cc1ccccc1)NC(=O)[C@H](CCC(=O)O)NC(=O)[C@H](C)NC(=O)[C@H](CC(C)C)NC(=O)[C@H](CCCNC(=N)N)NC(=O)[C@H](CCC(N)=O)NC(=O)[C@@H](NC(=O)[C@H](C)NC(=O)[C@@H]1CSSC[C@H](NC(=O)[C@H](CCCCN)NC(=O)[C@@H](CCCNC(=N)N)NC(=O)[C@@H](CCCNC(=N)N)NC(=O)COCCOCCNC(=O)COCCOCCNC(=O)CC[C@H](NC(=O)CCCCCCCCCCCCCCCCCCC(=O)O)C(=O)O)C(=O)N[C@@H](CC(N)=O)C(=O)N[C@@H]([C@@H](C)O)C(=O)N[C@@H](C)C(=O)N[C@@H]([C@@H](C)O)C(=O)N1)[C@@H](C)O)C(=O)N[C@@H](CC(C)C)C(=O)N1CCC[C@H]1C(=O)N1CCC[C@H]1C(=O)N[C@H](C(=O)N[C@@H](CC(N)=O)C(=O)N[C@H](C(=O)NCC(=O)N[C@@H](CO)C(=O)N[C@@H](CO)C(=O)N[C@H](C(=O)N[C@@H](Cc1ccc(O)cc1)C(N)=O)[C@@H](C)O)C(C)C)[C@@H](C)O [Example 38, N-alpha-[2-(2-{2-[2-(2-{2-[(S)-4-Carboxy-4-(19-carboxyheptadecanoylamino)butyrylamino]ethoxy}ethoxy)acetylamino]ethoxy}ethoxy)acetyl]-D-Arg-D-Arg-[Glu14,His17,Arg18,Ala21,Ser35]-pramlintide] ({C20 diacid-γGlu-AEEA-AEEA}-[dR][dR]KCNTATCATQRLAEFLHRSSANFGPILPPTNVGSSTY-NH2; disulfide 4-9) | EC50 ([1]; Table 9): 0.149 nM; solubility ([5]; pH 6.5, pH 6.5, read-out: Solubility pH 6.5): > 200 µM; solubility ([5]; pH 7, pH 7.0, 18 hours at room temperature, Table 3, read-out: Solubility pH 7.0): > 200 µM; solubility ([5]; pH 7, pH 7.0, Table 8, read-out: Solubility pH 7.0): > 200 µM; solubility ([5]; pH 7, pH 7.0, Table 9, read-out: Solubility pH 7.0): > 200 µM; solubility ([5]; pH 7, pH 7.0, read-out: Solubility pH 7.0): > 200 µM; solubility ([5]; pH 7.5, pH 7.5, Table 9, read-out: Solubility pH 7.5): > 200 µM |
